Earlier results, collected in patent US7317012B2, “Bicyclic heterocycles as cannabinoind-1 receptor modulators” (Bristol-Myers Squibb Company, priority 2005, dated 2008).
Read-outs that look alike come from different tables or passages of the source.

Key:
[1] = human subjects, 16 week trial period
[2] = chronic administration for two weeks

Row | Compound | body weight [1] | body weight [2]
1 | Cc1c(C(=O)NN2CCCCC2)nn(-c2ccc(Cl)cc2Cl)c1-c1ccc(Cl)cc1 [SR-141716] | dose-dependently reduced body weight | –
2 | Cc1c(C(=O)NN2CCCCC2)nn(-c2ccc(Cl)cc2Cl)c1-c1ccc(I)cc1 [AM-251] | – | substantial body weight reduction
